This is an account of results in paper PMC8602723, “Comparative assessment of antimicrobial, antiradical and cytotoxic activities of cannabidiol and its propyl analogue cannabidivarin” (Scientific Reports, 2021).

Each structure is given as a SMILES string. Read-outs that look alike come from different tables or passages of the source.

One assay has as its system A549 cells. Kind of assay: MTT assay (mitochondrial metabolism). In kind it is cell-based. The note with it: Homo sapiens, read-out: IC50 MTT assay. An excerpt: (§1) MTT assay is the most commonly used method for high-throughput identification of the antiproliferative effects of compounds on cultured cells and is indirectly correlated with mitochondria-dependent apoptosis progression[59]–[61]. The production of reducing equivalents such as NADH in metabolically active cells is an indicator of “cell redox activity”, indirectly reflecting the number of viable cells[60],[61] and the mitochondrial metabolic rate in cells[62],[63].
(§2) A549, Caco-2, HepG2 and TelCOFS02MA cells (1 × 10^4 cells/well), and MDA-MB-231 cells (0.5 × 10^4 cells/well) were seeded in 100 µL of fresh medium into 96-well plates (TC-Plate 96 wells, Sarstedt, Verona, Italy) in quadruplicate for 24 h at 37 °C in a humidified atmosphere of 95% air plus 5% CO2. Then, the medium was removed and replaced with 200 µL of media with different concentrations of CBD (5–80 µM, dilution factor [DF] equal to 2) and CBDV (5.5–88 µM, DF = 2) chosen on the basis of range-finding tests (0.5, 5, and 50 mg/L). We chose 1.56–25 mg/L to be tested and, to make easier the comparison between the two cannabinoids activities, the concentrations were reported in [μM]. In all experiments, negative controls (wells containing cells exposed only to the medium) and solvent controls (wells containing cells exposed to 2.5% methanol) were included. The plates were incubated at 37 °C for three exposure times: 24, 48 and 72 h (different plates were prepared for each specific time point). Then, MTT solution (5 mg/mL) was added to each well, and the plates were re-incubated for 4 h at 37 °C. The culture medium was removed, and 2-propanol was used to dissolve formazan crystals. The absorbance of formazan was measured spectrophotometrically at 590 nm using an automated microplate reader (Synergy H1, Biotek, Winooski, USA). The results are reported as the percentages of cells with inhibited proliferation, as determined by the link between the inhibition of mitochondrial metabolic activity and proliferation. The results were calculated with the following formula:1 IC%=1-OD590sample/OD590negativecontrol·100
(§3) Furthermore, IC50 values (concentrations of the sample used to obtain an inhibition of 50% of cell growth/metabolic activity) were calculated.
(§4) All results from five independent experiments are expressed as the IC50 or EC50 as determined by analysis with Prism 5 software (GraphPad Inc., San Diego, CA, USA) and nonlinear regression (log agonist vs. normalized response-variable slope) with a 95% confidence range. Lowest observed adverse effect concentrations (LOAECs) were calculated by one-way ANOVA and Dunnett’s comparison test. Differences compared to the controls were considered significant as follows: *p < 0.05, **p < 0.001 and ***p < 0.0001.

In another assay the test system is Hep G2 cells. As to the kind of experiment: MTT assay (mitochondrial metabolism). The note with it: Homo sapiens, read-out: IC50 MTT assay. In kind it is cell-based.
Source text: as §1, §2, §3, §4
In general terms: Tetrazolium dyes change colour on reduction, which living cells bring about.

The test system of the next assay is TelCOFS02MA cells. Kind of assay: LDH assay (plasma membrane damage). The note with it: for IC50: Homo sapiens, read-out: IC50 LDH assay. The class given is cell-based, human. The procedure: LDH assay is a high-throughput method based on the release of the LDH cytoplasmic enzyme from the cytosol into the extracellular space when the plasma membrane is damaged[29],[30]. Plasma membrane damage related to the amount of lysed cells was monitored by LDH assay, and the results were used for indirectly detecting the necrosis correlated to the leakage of the cytosolic enzyme due the loss of membrane permeability control[29],[30]. This assay was performed with the protocol described by Lehmann and colleagues.
Briefly, 1 × 10^4 A549 and Caco-2 cells and 2 × 10^4 HepG2, MDA-MB-231 and TelCOFS02MA cells were seeded in 100 µL of 1% FBS-fresh medium in each well of 96-well plates and incubated for 24 h at 37 °C with 95% humidity and 5% CO2. Then, the medium was removed and replaced with 100 µL of medium with different concentrations of CBD and CBDV, which were chosen on the basis of range-finding tests (as previously indicated). The plates were incubated at 37 °C for 72 h. In all experiments, the background control (wells with medium and without cells to obtain information about the LDH activity in the assay medium), low control (wells containing cells exposed only to the medium to determine spontaneous LDH release), high control (wells containing cells exposed to 2% Triton-X100 for 10 min before performing the assay to determine maximum LDH release), and solvent controls (2.5% methanol) were included. One hundred microlitres of supernatant was removed carefully from each well and transferred into corresponding wells in optically clear 96-well flat bottom microplates. One hundred microlitres of freshly prepared reaction mixture (Diaphorase (Catalyst)/NAD^+ /INT/sodium lactate) was added to each well and incubated for 30 min at 20 °C in darkness. Thus, NAD^+ was reduced to NADH/H^+ by the LDH-catalysed conversion of lactate to pyruvate. Then, the catalyst transferred H/H^+ from NADH/H^+ to the tetrazolium salt INT, which was reduced to formazan. To arrest the reaction, 50 µL/well of 1 N HCl was added. The spectrophotometric absorbance was determined at 492 nm. The absorbance of the background control wells was subtracted from all other values.
The results are reported as percentages of cytotoxicity, which is linked to the percentage of LDH released from damaged plasma membranes, calculated as follows:3 IC%=OD492sample-OD492lowcontrol/OD492highcontrol-OD492lowcontrol·100
IC50 values (concentrations of the sample to obtain 50% cytotoxicity) were calculated.
All results from five independent experiments are expressed as the IC50 or EC50 as determined by analysis with Prism 5 software (GraphPad Inc., San Diego, CA, USA) and nonlinear regression (log agonist vs. normalized response-variable slope) with a 95% confidence range. […]

For `C=C(C)[C@@H]1CCC(C)=C[C@H]1c1c(O)cc(CCCCC)cc1O` [CBD, Cannabidiol], the IC50 – broadly, the concentration at which inhibition is half-maximal – with A549 cells (A549, 72 h exposure, 95% confidence interval in brackets) was found to be 27.7 µM; with Hep G2 cells (HepG2, Hep G2, 72 h exposure, 95% confidence interval in brackets), 15.8 µM; in the assay with TelCOFS02MA cells (TelCOFS02MA, 72 h exposure, 95% confidence interval in brackets) it was 118 µM. The “LOAEC LDH assay” value with TelCOFS02MA cells (TelCOFS02MA, 72 h) came out at 80 µM.
As for `C=C(C)[C@@H]1CCC(C)=C[C@H]1c1c(O)cc(CCC)cc1O` [CBDV, cannabidivarin], the IC50 worked out at 32.9 µM with A549 cells (A549, 72 h); 19.7 µM with Hep G2 cells (HepG2, 72 h); 152 µM with TelCOFS02MA cells (72 h). The “LOAEC LDH assay” value in the assay on TelCOFS02MA cells (TelCOFS02MA, 72 h) came to 88 µM.
